The values that follow come from PubChem BioAssay AID588462 (The Scripps Research Institute Molecular Screening Center, 2011).

Common to all, as to experiment: PAD1-3 enzyme inhibition potency, late-stage follow-up, biochemical, colorimetric, BAEE substrate, recombinant PAD1-3 (AID 588462)
The target of experiment [1] is Protein-arginine deiminase type-1 (Homo sapiens) (UniProt Q9ULC6). To be noted: recombinant PAD1-3, BAEE citrullination, colorimetric absorbance; PAD1.
Experiment [2] deals with Protein-arginine deiminase type-2 (Homo sapiens) (UniProt Q9Y2J8). To be noted: recombinant PAD1-3, BAEE citrullination, colorimetric absorbance; PAD2.
The target in experiment [3] is Protein-arginine deiminase type-3 (Homo sapiens) (UniProt Q9ULW8). The following applies: recombinant PAD1-3, BAEE citrullination, colorimetric absorbance; PAD3.

Usually IC50 stands for the concentration that inhibits the measured activity by half.

Active and inactive are the calls of the source. No rule for the calls is given here.

Sequence of Protein-arginine deiminase type-2 (Homo sapiens) (Q9Y2J8 whole entry, looked up): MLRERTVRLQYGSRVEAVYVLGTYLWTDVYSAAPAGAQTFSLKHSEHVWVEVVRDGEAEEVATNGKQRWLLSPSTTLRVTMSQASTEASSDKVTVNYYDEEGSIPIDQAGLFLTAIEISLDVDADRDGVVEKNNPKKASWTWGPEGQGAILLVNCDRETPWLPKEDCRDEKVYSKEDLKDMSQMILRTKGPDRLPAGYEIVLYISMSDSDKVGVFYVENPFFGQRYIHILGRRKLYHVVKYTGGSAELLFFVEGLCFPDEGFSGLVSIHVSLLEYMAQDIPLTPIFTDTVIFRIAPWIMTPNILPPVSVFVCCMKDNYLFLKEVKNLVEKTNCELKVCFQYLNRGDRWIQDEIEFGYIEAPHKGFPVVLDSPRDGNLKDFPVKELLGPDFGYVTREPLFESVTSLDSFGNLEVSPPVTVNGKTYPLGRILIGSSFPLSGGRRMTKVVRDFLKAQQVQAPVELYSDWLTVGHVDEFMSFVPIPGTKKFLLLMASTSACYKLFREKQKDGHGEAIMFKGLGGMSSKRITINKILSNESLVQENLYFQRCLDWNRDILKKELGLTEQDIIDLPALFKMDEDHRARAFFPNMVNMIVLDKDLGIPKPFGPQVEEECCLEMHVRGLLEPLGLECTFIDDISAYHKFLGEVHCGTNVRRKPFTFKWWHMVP
Sequence of Protein-arginine deiminase type-3 (Homo sapiens) (Q9ULW8 whole entry, looked up): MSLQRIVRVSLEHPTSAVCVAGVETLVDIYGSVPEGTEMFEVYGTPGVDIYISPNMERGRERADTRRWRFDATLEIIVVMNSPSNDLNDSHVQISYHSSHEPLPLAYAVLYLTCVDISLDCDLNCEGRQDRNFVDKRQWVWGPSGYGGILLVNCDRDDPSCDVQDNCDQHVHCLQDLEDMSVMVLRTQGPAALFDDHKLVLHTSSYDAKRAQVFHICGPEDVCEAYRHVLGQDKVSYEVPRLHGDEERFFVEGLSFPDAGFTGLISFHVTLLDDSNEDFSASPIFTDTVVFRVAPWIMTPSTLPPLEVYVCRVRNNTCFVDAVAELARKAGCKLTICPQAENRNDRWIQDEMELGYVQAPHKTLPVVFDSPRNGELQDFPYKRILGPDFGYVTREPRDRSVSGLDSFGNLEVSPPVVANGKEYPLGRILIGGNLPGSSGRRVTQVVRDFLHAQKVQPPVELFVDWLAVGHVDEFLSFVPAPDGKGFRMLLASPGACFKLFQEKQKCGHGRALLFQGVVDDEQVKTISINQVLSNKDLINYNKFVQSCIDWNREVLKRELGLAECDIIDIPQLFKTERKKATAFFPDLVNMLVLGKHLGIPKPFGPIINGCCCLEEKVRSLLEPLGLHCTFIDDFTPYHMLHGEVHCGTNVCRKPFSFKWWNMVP
Sequence of Protein-arginine deiminase type-1 (Homo sapiens) (Q9ULC6 whole entry, looked up): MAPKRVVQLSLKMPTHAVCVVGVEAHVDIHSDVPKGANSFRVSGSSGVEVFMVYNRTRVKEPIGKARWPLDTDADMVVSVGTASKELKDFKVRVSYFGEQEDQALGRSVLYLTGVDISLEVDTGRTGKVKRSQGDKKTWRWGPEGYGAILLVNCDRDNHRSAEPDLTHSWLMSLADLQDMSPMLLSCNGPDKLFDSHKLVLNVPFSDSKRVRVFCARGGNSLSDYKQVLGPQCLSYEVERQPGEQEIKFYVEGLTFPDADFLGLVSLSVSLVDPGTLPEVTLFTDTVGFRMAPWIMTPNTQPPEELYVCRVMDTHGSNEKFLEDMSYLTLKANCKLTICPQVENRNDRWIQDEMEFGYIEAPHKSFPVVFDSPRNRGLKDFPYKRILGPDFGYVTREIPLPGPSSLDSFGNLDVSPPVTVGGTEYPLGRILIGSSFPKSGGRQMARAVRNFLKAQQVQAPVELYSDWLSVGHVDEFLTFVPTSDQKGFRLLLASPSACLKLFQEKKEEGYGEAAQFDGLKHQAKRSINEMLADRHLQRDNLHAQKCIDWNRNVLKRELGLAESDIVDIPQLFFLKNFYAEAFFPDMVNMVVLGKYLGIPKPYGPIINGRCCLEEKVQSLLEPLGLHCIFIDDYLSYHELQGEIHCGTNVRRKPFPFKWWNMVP

For the molecule `COC1=C(N)C(=O)c2nc(-c3nc(C(=O)O)c(C)c(-c4ccc(OC)c(OC)c4O)c3N)ccc2C1=O`, the IC50 result in experiment [1] and in experiment [2] was “inactive” each time. In addition, the IC50 in experiment [3] is 430 nM.
